Legend:
Assay type in all cases: physicochemical
[1] = Solubility profile in dichloromethane; details: 20° C.-25° C.
[2] = Solubility and rate of dissolution in organo-solvents or oils (comparison of crystal forms); details: Form I vs Form II
[3] = Stability of the crystal in the dry form

Structure (SMILES) | solubility profile in dichloromethane [1] | rate of dissolution in organo-solvents or oils relative to the other crystal form [2] | solubility in organo-solvents or oils relative to the other crystal form [2] | stability [3]
CC1=C(/C=C/C(C)=C/C=C/C(C)=C/C=C/C=C(C)/C=C/C=C(C)/C=C/C2=C(C)C(=O)C(O)CC2(C)C)C(C)(C)CC(O)C1=O (stereo not drawn) [Crystal Form I, 3,3′-dihydroxy-β,β-carotene-4,4′-dione] | 35 to 45 g/L | higher | higher solubility | stable in the dry form
CC1=C(/C=C/C(C)=C/C=C/C(C)=C/C=C/C=C(C)/C=C/C=C(C)/C=C/C2=C(C)C(=O)C(O)CC2(C)C)C(C)(C)CC(O)C1=O (stereo not drawn) [Crystal Form II, 3,3′-dihydroxy-β,β-carotene-4,4′-dione] | 10-30 g/l | – | lower solubility | –

— US7563935B2, “Crystal forms of astaxanthin” (Phares Pharmaceutical Research N.V. et al., priority 2005, dated 2009)
